pIC50, pKi: −log10 of the molar value. Converted amounts (≈) assume the structure as drawn.
How the values were obtained:
[1] = biological target: T1, hα4 and β1 integrins (Homo sapiens, UniProt P05556+P13612); assay: In vitro inhibition of binding between CHO cells expressing hα4 and β1 integrins and Eu3+-hVCAM-1 D1D7-IgG; details: for pKi: CHO cells expressing hα4 and β1 integrins, Eu3+-hVCAM-1 D1D7-IgG ligand, without HSA; for pIC50: in the presence of 3% human serum albumin (HSA final concentration 3%)
T1 construct: expressed in transfected cells; host or cells: CHO cells
Method in brief: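 Transfected CHO cells, cultured 2 days, were incubated with compound and Eu³⁺-hVCAM-1 D1D7-IgG (diluted to 2 nM) for 1 h at room temperature. Buffer was 25 mM HEPES pH 7.5 with 1 mM Ca²⁺, 1 mM Mg²⁺, 4 mM Mn²⁺ and 0.1% BSA, ±3% HSA final. Cells were washed at 4 °C and read by DELFIA time-resolved fluorescence; Ki was derived from IC50 using the Scatchard Kd.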

[2] = Solubility test in first and second liquid of the Japanese Pharmacopoeia; details: Solubility
Procedure: The solubilities of the substance under test in the first liquid (JP1, pH=1.2) of the Japanese Pharmacopoeia and the second liquid (JP2, pH=6.8) of the Japanese Pharmacopoeia, were evaluated.

[3] = first liquid of the Japanese Pharmacopoeia (JP1), pH 1.2, simulated gastric fluid, First liquid of Japanese Pharmacopoeia (μg/mL), JP1, pH=1.2
[4] = second liquid of the Japanese Pharmacopoeia (JP2), pH 6.8, aqueous buffer, Second liquid of Japanese Pharmacopoeia (μg/mL), JP2, pH=6.8

T1 sequence (P13612 34-1032): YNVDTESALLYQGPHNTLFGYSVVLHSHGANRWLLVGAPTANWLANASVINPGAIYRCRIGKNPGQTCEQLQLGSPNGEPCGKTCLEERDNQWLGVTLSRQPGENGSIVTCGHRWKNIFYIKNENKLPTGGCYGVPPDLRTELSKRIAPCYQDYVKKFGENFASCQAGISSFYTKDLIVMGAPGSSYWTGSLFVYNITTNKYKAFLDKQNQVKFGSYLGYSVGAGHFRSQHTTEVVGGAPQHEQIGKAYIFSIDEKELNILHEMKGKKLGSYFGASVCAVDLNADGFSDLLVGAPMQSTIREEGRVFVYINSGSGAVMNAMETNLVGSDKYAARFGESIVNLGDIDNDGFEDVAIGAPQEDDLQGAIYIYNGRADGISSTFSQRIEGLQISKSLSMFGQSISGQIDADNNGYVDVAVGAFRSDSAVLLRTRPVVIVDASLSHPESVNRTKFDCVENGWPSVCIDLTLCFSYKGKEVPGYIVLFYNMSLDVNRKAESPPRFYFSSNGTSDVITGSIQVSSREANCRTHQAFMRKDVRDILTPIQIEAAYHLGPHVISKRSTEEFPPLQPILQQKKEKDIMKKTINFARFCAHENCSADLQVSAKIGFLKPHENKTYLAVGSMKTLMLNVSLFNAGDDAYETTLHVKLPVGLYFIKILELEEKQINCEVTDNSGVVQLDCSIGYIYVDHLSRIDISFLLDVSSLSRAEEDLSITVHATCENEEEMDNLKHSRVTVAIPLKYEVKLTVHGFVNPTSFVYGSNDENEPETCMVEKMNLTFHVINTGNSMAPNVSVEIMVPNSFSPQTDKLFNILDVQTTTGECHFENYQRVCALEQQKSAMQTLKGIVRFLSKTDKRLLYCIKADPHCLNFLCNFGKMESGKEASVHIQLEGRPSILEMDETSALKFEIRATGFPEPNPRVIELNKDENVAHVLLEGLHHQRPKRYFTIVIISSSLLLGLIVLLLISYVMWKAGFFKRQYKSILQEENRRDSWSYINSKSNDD
T1 sequence (P05556 21-798): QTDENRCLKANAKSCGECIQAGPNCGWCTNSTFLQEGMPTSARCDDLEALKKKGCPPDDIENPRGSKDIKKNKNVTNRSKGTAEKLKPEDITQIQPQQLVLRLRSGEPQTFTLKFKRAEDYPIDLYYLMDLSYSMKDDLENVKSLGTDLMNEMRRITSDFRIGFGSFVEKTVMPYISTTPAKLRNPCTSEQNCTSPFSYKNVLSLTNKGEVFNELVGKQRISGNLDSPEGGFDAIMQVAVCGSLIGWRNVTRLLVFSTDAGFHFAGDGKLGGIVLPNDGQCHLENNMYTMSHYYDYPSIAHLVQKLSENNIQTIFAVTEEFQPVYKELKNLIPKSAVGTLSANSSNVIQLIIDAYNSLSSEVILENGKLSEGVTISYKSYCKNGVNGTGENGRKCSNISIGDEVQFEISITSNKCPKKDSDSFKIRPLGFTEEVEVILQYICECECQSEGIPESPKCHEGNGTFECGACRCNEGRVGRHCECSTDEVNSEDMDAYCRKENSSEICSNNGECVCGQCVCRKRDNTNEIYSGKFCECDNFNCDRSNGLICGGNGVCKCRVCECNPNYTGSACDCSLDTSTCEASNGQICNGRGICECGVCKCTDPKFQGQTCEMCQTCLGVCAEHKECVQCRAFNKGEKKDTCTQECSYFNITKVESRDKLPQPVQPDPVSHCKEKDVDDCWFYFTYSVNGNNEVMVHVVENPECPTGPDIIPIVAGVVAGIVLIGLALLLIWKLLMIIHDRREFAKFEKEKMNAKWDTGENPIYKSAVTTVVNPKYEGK

Row | pKi [1] | pIC50 [1] | solubility [2, 3] [µg/mL] | solubility [2, 4] [µg/mL] | Compound
1 | 8.92 | 8.04 | > 2000 | 1580 (≈ 2310 µM) | CO[C@@H]1CCCN([C@H]2C[C@@H](CO[C@H]3CC[C@H](C(=O)O)CC3)N(C(=O)Cc3cc(Cl)c(NC(=O)c4csc5ccccc45)cc3F)C2)C1 [Example 106, Trans-4-[1-[[4-[(benzo[b]thiophen-3-ylcarbonyl)amino]-5-chloro-2-fluorophenyl]acetyl]-(4S)-[(3R)-methoxypiperidin-1-yl]-(2S)-pyrrolidinylmethoxy]cyclohexanecarboxylic acid]
2 | 8.33 | 7.64 | 1000 (≈ 1340 µM) | 1000 (≈ 1340 µM) | CCO[C@H]1CN([C@H]2C[C@@H](CO[C@H]3CC[C@H](C(=O)O)CC3)N(C(=O)Cc3cc(Cl)c(NC(=O)c4cn(C)c5ccccc45)cc3Cl)C2)C[C@H]1OCC [Example 63, Trans-4-[1-[[2,5-dichloro-4-[(1-methyl-1H-indol-3-ylcarbonyl)amino]phenyl]acetyl]-(4S)-(3,4-cis-diethoxypyrrolidin-1-yl)-(2S)-pyrrolidinylmethoxy]cyclohexanecarboxylic acid]
3 | 8.82 | 8.28 | > 2000 | > 2000 | Cn1cc(C(=O)Nc2cc(F)c(CC(=O)N3C[C@@H](N4CCOCC4)C[C@H]3CO[C@H]3CC[C@H](C(=O)O)CC3)cc2Cl)c2ccccc21 [Example 78, Trans-4-[1-[[5-chloro-2-fluoro-4-[(1-methyl-1H-indol-3-ylcarbonyl)amino]phenyl]acetyl]-(4S)-(morpholin-4-yl)-(2S)-pyrrolidinylmethoxy]cyclohexanecarboxylic acid]
4 | 9.49 | 8.66 | > 2000 | 1360 (≈ 1990 µM) | COC1CCN([C@H]2C[C@@H](CO[C@H]3CC[C@H](C(=O)O)CC3)N(C(=O)Cc3cc(Cl)c(NC(=O)c4csc5ccccc45)cc3F)C2)CC1 [Example 103, Trans-4-[1-[[4-[(benzo[b]thiophen-3-ylcarbonyl)amino]-5-chloro-2-fluorophenyl]acetyl]-(4S)-(4-methoxypiperidin-1-yl)-(2S)-pyrrolidinylmethoxy]cyclohexanecarboxylic acid]
5 | 8.23 | 7.70 | > 2000 | > 2000 | CO[C@H]1CCN([C@H]2C[C@@H](CO[C@H]3CC[C@H](C(=O)O)CC3)N(C(=O)Cc3cc(Cl)c(NC(=O)c4cn(C)c5ccccc45)cc3Cl)C2)C1 [Example 35, Trans-4-[1-[[2,5-dichloro-4-[(1-methyl-1H-indol-3-ylcarbonyl)amino]phenyl]acetyl]-(4S)-[(3S)-methoxypyrrolidin-1-yl]-(2S)-pyrrolidinylmethoxy]cyclohexanecarboxylic acid]
6 | 9.02 | 8.09 | 1200 (≈ 1840 µM) | 1200 (≈ 1840 µM) | C[C@@H]1CN([C@H]2C[C@@H](CO[C@H]3CC[C@H](C(=O)O)CC3)N(C(=O)Cc3ccc(NC(=O)c4coc5ccccc45)c(Cl)c3)C2)C[C@H](C)O1 [Example 87, Trans-4-[1-[[4-[(benzo[b]furan-3-ylcarbonyl)amino]-3-chlorophenyl]acetyl]-(4S)-(cis-2,6-dimethylmorpholin-4-yl)-(2S)-pyrrolidinylmethoxy]cyclohexanecarboxylic acid]
7 | 8.41 | 7.96 |  |  | Cn1cc(C(=O)Nc2cc(F)c(CC(=O)N3C[C@@H](N4CCN(c5ccncc5)CC4)C[C@H]3CO[C@H]3CC[C@H](C(=O)O)CC3)cc2Cl)c2ccccc21 [Example 145, Trans-4-[1-[[5-chloro-2-fluoro-4-[(1-methyl-1H-indol-3-ylcarbonyl)amino]phenyl]acetyl]-(4S)-[4-(4-pyridyl)piperazin-1-yl]-(2S)-pyrrolidinylmethoxy]cyclohexanecarboxylic acid]
8 | 8.17 | 7.62 |  |  | COC[C@H]1CCCN1[C@H]1C[C@@H](CO[C@H]2CC[C@H](C(=O)O)CC2)N(C(=O)Cc2cc(Cl)c(NC(=O)c3csc4ccccc34)cc2F)C1 [Example 44, Trans-4-[1-[[4-[(benzo[b]thiophen-3-ylcarbonyl)amino]-5-chloro-2-fluorophenyl]acetyl]-(4S)-[(2R)-methoxymethylpyrrolidin-1-yl]-(2S)-pyrrolidinylmethoxy]cyclohexanecarboxylic acid]
9 | 8.31 | 7.89 |  |  | COC1CCN([C@H]2C[C@@H](CC[C@H]3CC[C@H](C(=O)O)CC3)N(C(=O)Cc3cc(Cl)c(NC(=O)c4cn(C)c5ccccc45)cc3Cl)C2)CC1 [Example 104, Trans-4-[2-[1-[[2,5-dichloro-4-[(1-methyl-1H-indol-3-ylcarbonyl)amino]phenyl]acetyl]-(4S)-(4-methoxypiperidin-1-yl)-(2S)-pyrrolidinyl]ethyl]cyclohexanecarboxylic acid]

More lines, now with the values behind:

Row | Compound | pKi [1] | pIC50 [1] | solubility [2, 3] [µg/mL] | solubility [2, 4] [µg/mL]
10 | CN(C)C(=O)C1CCN([C@H]2C[C@@H](CO[C@H]3CC[C@H](C(=O)O)CC3)N(C(=O)Cc3cc(Cl)c(NC(=O)c4coc5ccccc45)cc3Cl)C2)CC1 [Example 107, Trans-4-[1-[[4-[(benzo[b]furan-3-ylcarbonyl)amino]-2,5-dichlorophenyl]acetyl]-(4S)-[4-(dimethylcarbamoyl)piperidin-1-yl]-(2S)-pyrrolidinylmethoxy]cyclohexanecarboxylic acid] | 8.74 | 8.12 | 1200 (≈ 1650 µM) | 1200 (≈ 1650 µM)
11 | COCC1CCN([C@H]2C[C@@H](CO[C@H]3CC[C@H](C(=O)O)CC3)N(C(=O)Cc3cc(Cl)c(NC(=O)c4csc5ccccc45)cc3F)C2)CC1 [Example 99, Trans-4-[1-[[4-[(benzo[b]thiophen-3-ylcarbonyl)amino]-5-chloro-2-fluorophenyl]acetyl]-(4S)-[(4-methoxymethyl)piperidin-1-yl]-(2S)-pyrrolidinylmethoxy]cyclohexanecarboxylic acid] | 9.47 | 8.42 | > 2000 | 1020 (≈ 1450 µM)
12 | Cn1cc(C(=O)Nc2cc(Cl)c(CC(=O)N3C[C@@H](N4CC(C)(C)C4)C[C@H]3CO[C@H]3CC[C@H](C(=O)O)CC3)cc2Cl)c2ccccc21 [Example 15, Trans-4-[1-[[2,5-dichloro-4-[(1-methyl-1H-indol-3-ylcarbonyl)amino]phenyl]acetyl]-(4S)-(3,3-dimethylazetidin-1-yl)-(2S)-pyrrolidinylmethoxy]cyclohexanecarboxylic acid] |  |  | 1100 (≈ 1640 µM) | 1100 (≈ 1640 µM)
13 | CN(C)CC1CN([C@H]2C[C@@H](CO[C@H]3CC[C@H](C(=O)O)CC3)N(C(=O)Cc3cc(Cl)c(NC(=O)c4cn(C)c5ccccc45)cc3F)C2)C1 [Example 29, Trans-4-[1-[[5-chloro-2-fluoro-4-[(1-methyl-1H-indol-3-ylcarbonyl)amino]phenyl]acetyl]-(4S)-[3-(N,N-dimethylaminomethyl)azetidin-1-yl]-(2S)-pyrrolidinylmethoxy]cyclohexane carboxylic acid] | 8.38 | 7.92 | 1000 (≈ 1470 µM) | 1000 (≈ 1470 µM)
14 | Cn1cc(C(=O)Nc2cc(F)c(CC(=O)N3C[C@@H](N4CC(C)(C)C4)C[C@H]3CO[C@H]3CC[C@H](C(=O)O)CC3)cc2Cl)c2ccccc21 [Example 14, Trans-4-[1-[[5-chloro-2-fluoro-4-[(1-methyl-1H-indol-3-ylcarbonyl)amino]phenyl]acetyl]-(4S)-(3,3-dimethylazetidin-1-yl)-(2S)-pyrrolidinylmethoxy]cyclohexanecarboxylic acid] |  |  | 1100 (≈ 1680 µM) | 1000 (≈ 1530 µM)
15 | CN1CCN([C@H]2C[C@@H](CO[C@H]3CC[C@H](C(=O)O)CC3)N(C(=O)Cc3cc(Cl)c(NC(=O)c4cn(C)c5ccccc45)cc3Cl)C2)CC1 [Example 112, Trans-4-[1-[[2,5-dichloro-4-[(1-methyl-1H-indol-3-ylcarbonyl)amino]phenyl]acetyl]-(4S)-(4-methylpiperazin-1-yl)-(2S)-pyrrolidinylmethoxy]cyclohexanecarboxylic acid] | 8.38 | 8.02 |  | 
16 | CS(=O)(=O)N1CCN([C@H]2C[C@@H](CO[C@H]3CC[C@H](C(=O)O)CC3)N(C(=O)Cc3cc(Cl)c(NC(=O)c4coc5ccccc45)cc3F)C2)CC1 [Example 150, Trans-4-[1-[[4-[(benzo[b]furan-3-ylcarbonyl)amino]-5-chloro-2-fluorophenyl]acetyl]-(4S)-(4-methanesulfonylpiperazin-1-yl)-(2S)-pyrrolidinylmethoxy]cyclohexanecarboxylic acid] | 8.80 | 8.17 |  | 
17 | CN1CCN([C@H]2C[C@@H](CO[C@H]3CC[C@H](C(=O)O)CC3)N(C(=O)Cc3cc(Cl)c(NC(=O)c4coc5ccccc45)cc3Cl)C2)CC1=O [Example 155, Trans-4-[1-[[4-[(benzo[b]furan-3-ylcarbonyl)amino]-2,5-dichlorophenyl]acetyl]-(4S)-(4-methyl-3-oxopiperazin-1-yl)-(2S)-pyrrolidinylmethoxy]cyclohexanecarboxylic acid] | 8.68 | 8.00 |  | 
18 | CO[C@@H]1CN([C@H]2C[C@@H](CO[C@H]3CC[C@H](C(=O)O)CC3)N(C(=O)Cc3cc(Cl)c(NC(=O)c4coc5ccccc45)cc3Cl)C2)C[C@H]1OC [Example 65, Trans-4-[1-[[4-[(benzo[b]furan-3-ylcarbonyl)amino]-2,5-dichlorophenyl]acetyl]-(4S)-[(3R,4R)-dimethoxypyrrolidin-1-yl]-(2S)-pyrrolidinylmethoxy]cyclohexanecarboxylic acid] | 8.54 | 7.46 |  | 

From patent US8129366B2, “VLA-4 inhibitory drug” (Daiichi Sankyo Company, Limited, priority 2005, dated 2012)
